From US20230255988A1 (CORNELL UNIVERSITY, priority 2020, published 2023)

Test system: advanced glycation end products (AGE)
Test: Advanced glycation end products (AGE) level, ABCAM kit
Format: in vivo, human
Details: 12 months
Procedure: Biomarker outcomes. AGE are formed during the Maillard reaction where reducing carbohydrates react with lysine side chains and N-terminal amino groups of various macromolecules, particularly proteins. AGE can adversely affect the function of these macromolecules. One of the most prevalent advanced glycation end products, N-epsilon-(carboxymethyl) lysine, has been implicated in oxidative stress and vascular damage. The quantity of AGE adduct in protein samples is determined by comparison with that of a known AGE-BSA standard curve. AGE levels were measured on plasma sample with a kit from ABCAM (AB238539), Cambridge, Mass., USA

SMILES: C/C(=C(\CCOP(=O)(O)O)SC(=O)c1ccccc1)N(C=O)Cc1cnc(C)nc1N [benfotiamine]
- AGE effect by APOE ε4 status: more apparent in non-APOE ε4 patients
- effect on AGE over the course of the disease (13 benfotiamine patients, p=0.043): inhibited the increase in AGE
